Measured values taken from US6720346B2, “Thiazole benzamide derivatives and pharmaceutical compositions for inhibiting cell proliferation” (Agouron Pharmaceuticals, Inc., priority 2001, dated 2004).

Key:
[1] = target: T1, CDK2/cyclin A (Homo sapiens, UniProt P24941); test: Inhibition of CDK2/cyclin A retinoblastoma kinase activity (Ki; % inhibition); assay type: biochemical; conditions: 0.03 μM compound
T1 construct: made in house; host or cells: CDK2: insect cells (baculovirus); cyclin A: E. coli
Outline: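 Apparent Ki values came from fitting concentration-dependent activity data to competitive (or competitive tight-binding) models, and % inhibition from single 30 nM screens of library compounds. Activity was measured as ³²P/³³P incorporation from 25 μM ATP into an Rb substrate by 10 or 19 nM CDK2/delta cyclin A at 30 °C over 60–75 min, pH 7.4.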

[2] = target: T2, human CDK4/cyclin D3 (Homo sapiens, UniProt P11802); test: Inhibition of CDK4/cyclin D retinoblastoma kinase activity (Ki; % inhibition); assay type: biochemical; conditions: 0.03 μM compound
T2 construct: made in house; host or cells: insect cells co-infected with baculovirus vectors
Outline: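 Radiometric filter-binding read-out: Rb residues 386-928 phosphorylated by 5 nM CDK4/cyclin D3(1-264) from baculovirus-infected insect cells, 25 μM ATP, HEPES pH 7.4, 30 °C. Run 20 min, or 60 min for tight-binding inhibitors. Screening at 30 nM theoretical compound; apparent Ki by competitive-inhibition fitting.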

[3] = system: HCT-116 cell line; test: Inhibition of cell growth, MTT tetrazolium salt assay; assay type: cell-based; conditions: HCT-116 cells; for HCT-116 % Inhibition at 0.1 μM: 0.1 μM compound; for HCT-116 % Inhibition at 0.25 μM: 0.25 μM compound
Outline: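 Cells in McCoy's 5A medium were given 4 h before compound addition in 0.5% (v/v) DMSO, then incubated 3–5 days at 37 °C, 5% CO2. After 4 h with 0.2 mg/mL MTT, DMSO-solubilized formazan was read at 540 nm; 50% and 90% growth-inhibitory concentrations came from semi-log plots against vehicle controls.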

T2 sequence (P11802 whole entry): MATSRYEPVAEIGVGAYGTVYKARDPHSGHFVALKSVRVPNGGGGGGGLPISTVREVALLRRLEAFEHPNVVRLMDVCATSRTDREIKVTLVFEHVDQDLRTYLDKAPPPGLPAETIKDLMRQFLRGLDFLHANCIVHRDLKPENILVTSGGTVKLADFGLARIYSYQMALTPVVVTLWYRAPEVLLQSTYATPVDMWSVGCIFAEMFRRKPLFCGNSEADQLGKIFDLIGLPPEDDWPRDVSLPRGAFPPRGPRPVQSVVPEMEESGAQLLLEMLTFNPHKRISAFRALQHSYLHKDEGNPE
T2 sequence (P30281 1-264 partner limits assumed): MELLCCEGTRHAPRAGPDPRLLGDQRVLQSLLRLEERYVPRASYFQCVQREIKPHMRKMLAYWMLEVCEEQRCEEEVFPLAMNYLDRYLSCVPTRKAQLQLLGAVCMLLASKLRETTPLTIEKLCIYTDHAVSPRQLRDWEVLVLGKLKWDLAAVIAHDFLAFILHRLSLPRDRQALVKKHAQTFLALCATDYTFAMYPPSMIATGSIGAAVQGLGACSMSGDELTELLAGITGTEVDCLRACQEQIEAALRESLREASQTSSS

| SMILES | CDK2 % Inhibition at 0.03 μM [1] [%] | CDK4 % Inhibition at 0.03 μM [2] [%] | HCT-116 % Inhibition at 0.1 μM [3] [%] | HCT-116 % Inhibition at 0.25 μM [3] [%] | CDK2 % Inhibition at 0.03 μM ([1]; 0.03 µM) [%] | CDK4 % Inhibition at 0.03 μM ([2]; 0.03 µM) [%] | HCT-116 % Inhibition at 0.1 μM ([3]; 0.1 µM) [%] | HCT-116 % Inhibition at 0.25 μM ([3]; 0.25 µM) [%] |
| --- | --- | --- | --- | --- | --- | --- | --- | --- |
| Nc1nc(Nc2ccc(C(=O)Nc3ccc(Cl)cc3)cc2)sc1C(=O)c1c(F)cccc1F [Example G288] | −10 | 11 | 16 | 60 | – | – | – | – |
| Nc1nc(Nc2ccc(C(=O)Nc3cccc(F)c3)cc2)sc1C(=O)c1c(F)cccc1F [Example G289] | −6 | 9 | 7 | 62 | – | – | – | – |
| CCN(C)C(=O)c1ccc(Nc2nc(N)c(C(=O)c3c(F)cccc3F)s2)cc1 [Example G290] | −12 | −2 | 2 | 39 | – | – | – | – |
| Nc1nc(Nc2ccc(C(=O)NCCCCc3ccccc3)cc2)sc1C(=O)c1c(F)cccc1F [Example G291] | 6 | 14 | 5 | 53 | – | – | – | – |
| Nc1nc(Nc2ccc(C(=O)Nc3cccc(OC(F)(F)F)c3)cc2)sc1C(=O)c1c(F)cccc1F [Example G292] | −31 | −15 | 0 | 60 | – | – | – | – |
| Nc1nc(Nc2ccc(C(=O)NCc3cccc(C(F)(F)F)c3)cc2)sc1C(=O)c1c(F)cccc1F [Example G293] | 23 | 32 | 10 | 56 | – | – | – | – |
| Cc1cccc(CNC(=O)c2ccc(Nc3nc(N)c(C(=O)c4c(F)cccc4F)s3)cc2)c1C [Example G294] | 30 | 29 | 15 | 74 | – | – | – | – |
| COc1cc(NC(=O)c2ccc(Nc3nc(N)c(C(=O)c4c(F)cccc4F)s3)cc2)cc(OC)c1OC [Example G295] | 8 | 22 | 10 | 78 | – | – | – | – |
| CN(CCC#N)C(=O)c1ccc(Nc2nc(N)c(C(=O)c3c(F)cccc3F)s2)cc1 [Example G296] | 0 | 22 | 0 | 43 | – | – | – | – |
| Cc1cc(C)cc(NC(=O)c2ccc(Nc3nc(N)c(C(=O)c4c(F)cccc4F)s3)cc2)c1 [Example G297] | −3 | 8 | 0 | 45 | – | – | – | – |
| CCN(CC)CCN(C)C(=O)c1ccc(Nc2nc(N)c(C(=O)c3c(F)cccc3F)s2)cc1 [Example G298] | −9 | 30 | 0 | 46 | – | – | – | – |
| CCC(C)CN(CCO)C(=O)c1ccc(Nc2nc(N)c(C(=O)c3c(F)cccc3F)s2)cc1 (stereo not shown) [Example G299] | −11 | −7 | 10 | 49 | – | – | – | – |
| CC(NC(=O)c1ccc(Nc2nc(N)c(C(=O)c3c(F)cccc3F)s2)cc1)C1CCCCC1 (stereo not shown) [Example G300] | – | – | – | – | −18 | −10 | 18 | 70 |
| Nc1nc(Nc2ccc(C(=O)NCc3ccc(F)cc3F)cc2)sc1C(=O)c1c(F)cccc1F [Example G301] | 13 | 25 | 18 | 79 | – | – | – | – |
| Nc1nc(Nc2ccc(C(=O)NCc3ccc(F)c(C(F)(F)F)c3)cc2)sc1C(=O)c1c(F)cccc1F [Example G302] | 17 | 29 | 17 | 63 | – | – | – | – |
| CC1CCCCN1CCCNC(=O)c1ccc(Nc2nc(N)c(C(=O)c3c(F)cccc3F)s2)cc1 (stereo not shown) [Example G303] | 2 | 45 | 18 | 72 | – | – | – | – |
| N#CCCN(Cc1ccccc1)C(=O)c1ccc(Nc2nc(N)c(C(=O)c3c(F)cccc3F)s2)cc1 [Example G304] | 0 | 20 | 15 | 54 | – | – | – | – |

| SMILES | CDK2 % Inhibition at 0.03 μM [1] [%] | CDK4 % Inhibition at 0.03 μM [2] [%] | HCT-116 % Inhibition at 0.1 μM [3] [%] | HCT-116 % Inhibition at 0.25 μM [3] [%] | CDK2 % Inhibition at 0.03 μM ([1]; 0.03 µM) [%] | CDK4 % Inhibition at 0.03 μM ([2]; 0.03 µM) [%] | HCT-116 % Inhibition at 0.1 μM ([3]; 0.1 µM) [%] | HCT-116 % Inhibition at 0.25 μM ([3]; 0.25 µM) [%] |
| --- | --- | --- | --- | --- | --- | --- | --- | --- |
| Nc1nc(Nc2ccc(C(=O)Nc3ccc(Nc4ccccc4)cc3)cc2)sc1C(=O)c1c(F)cccc1F [Example G305] | −6 | 11 | 29 | 81 | – | – | – | – |
| CCCCN(Cc1ccccc1)C(=O)c1ccc(Nc2nc(N)c(C(=O)c3c(F)cccc3F)s2)cc1 [Example G306] | −17 | 0 | 9 | 44 | – | – | – | – |
| CN(Cc1ccco1)C(=O)c1ccc(Nc2nc(N)c(C(=O)c3c(F)cccc3F)s2)cc1 [Example G307] | −3 | 12 | 8 | 54 | – | – | – | – |
| Cc1cccc(N2CCN(C(=O)c3ccc(Nc4nc(N)c(C(=O)c5c(F)cccc5F)s4)cc3)CC2C)c1 (stereo not shown) [Example G308] | −23 | 5 | 5 | 60 | – | – | – | – |
| Nc1nc(Nc2ccc(C(=O)NCc3cc(F)ccc3F)cc2)sc1C(=O)c1c(F)cccc1F [Example G309] | 17 | 30 | 5 | 65 | – | – | – | – |
| CC(=O)c1ccc(NC(=O)c2ccc(Nc3nc(N)c(C(=O)c4c(F)cccc4F)s3)cc2)cc1 [Example G310] | −5 | 10 | 14 | 53 | – | – | – | – |
| Nc1nc(Nc2ccc(C(=O)N3CCN(c4ccncc4)CC3)cc2)sc1C(=O)c1c(F)cccc1F [Example G311] | −1 | 46 | 5 | 43 | – | – | – | – |
| CCN(C(=O)c1ccc(Nc2nc(N)c(C(=O)c3c(F)cccc3F)s2)cc1)C1CCCCC1 [Example G312] | −10 | 5 | 8 | 58 | – | – | – | – |
| CCOc1ccc(NC(=O)c2ccc(Nc3nc(N)c(C(=O)c4c(F)cccc4F)s3)cc2)cc1 [Example G313] | 11 | 12 | 10 | 57 | – | – | – | – |
| CCCCN(CCCC)C(=O)c1ccc(Nc2nc(N)c(C(=O)c3c(F)cccc3F)s2)cc1 [Example G314] | −7 | 0 | 9 | 47 | – | – | – | – |
| Cc1cccc(CN(C)C(=O)c2ccc(Nc3nc(N)c(C(=O)c4c(F)cccc4F)s3)cc2)n1 [Example G315] | −1 | 11 | 7 | 50 | – | – | – | – |
| N#CCCN(Cc1cccnc1)C(=O)c1ccc(Nc2nc(N)c(C(=O)c3c(F)cccc3F)s2)cc1 [Example G316] | −2 | 11 | 1 | 56 | – | – | – | – |
| Nc1nc(Nc2ccc(C(=O)NCc3ccc(F)c(F)c3)cc2)sc1C(=O)c1c(F)cccc1F [Example G317] | 27 | 33 | 27 | 87 | – | – | – | – |
| Nc1nc(Nc2ccc(C(=O)N[C@H](CO)Cc3ccccc3)cc2)sc1C(=O)c1c(F)cccc1F [Example G318] | −14 | 1 | 16 | 48 | – | – | – | – |
| COc1ccc(OC)c(CCNC(=O)c2ccc(Nc3nc(N)c(C(=O)c4c(F)cccc4F)s3)cc2)c1 [Example G319] | −5 | 14 | 17 | 54 | – | – | – | – |
| C=CCN(C(=O)c1ccc(Nc2nc(N)c(C(=O)c3c(F)cccc3F)s2)cc1)C1CCCCC1 [Example G320] | −15 | 5 | 12 | 46 | – | – | – | – |
| N#CCc1ccc(NC(=O)c2ccc(Nc3nc(N)c(C(=O)c4c(F)cccc4F)s3)cc2)cc1 [Example G321] | 1 | 19 | 11 | 51 | – | – | – | – |
